What was measured:
HIV-1 = settings: 12 weeks, p<0.05; cited from earlier work
[1] = tested on: latent HIV-1 in a monocytoid (U1) cell line; settings: cited from earlier work
TNF-α = settings: cited from earlier work
[2] = tested on: HIV-1 in peripheral blood mononuclear cells; settings: advanced HIV-1 infection and AIDS; cited from earlier work
PAF = test: Monocyte release of PAF; format: cell-based, human; set-up: key: NE: No effect; NT: Not tested; INHIB: Inhibition; STIM: Stimulation; TC: Tolerated Concentration; settings: zymosan A
Description: (§1) Monocyte Release of PGE2, LTB4, and PAF:
(§2) Monocytes isolated as described above, were washed and resuspended in RPMl containing 5 mg/ml HSA at 2×10^6 cells/ml and added to wells of a 48-well plates. The cells were allowed to adhere for 2 hours then washed in HBSS-BSA-HEPES buffer. Test materials were added at four concentrations (175 μl) for 60 minutes; then the monocytes were stimulated by addition of […] zymosan A (175 μl of 2× desired final concentration added). Supernatant medium was collected from the wells after 90 minutes incubation and stored at -20° C. until assayed. Supernatants were assayed for PGE2, LTB4 or PAF using specific scintillation proximity assays (SPA).

IL1ra = test: Monocyte release of IL-1 receptor antagonist; format: cell-based, human; set-up: key: NE: No effect; NT: Not tested; INHIB: Inhibition; STIM: Stimulation; TC: Tolerated Concentration
SUPEROXIDE = test: Monocyte superoxide anion (O2) release; format: cell-based, human; set-up: key: NE: No effect; NT: Not tested; INHIB: Inhibition; STIM: Stimulation; TC: Tolerated Concentration; settings: zymosan A
Description: Monocyte Superoxide Anion (O2) Release:
Monocytes are prepared as described above and resuspended to 5×10^6 /ml in HBSS containing 10 Mm HEPES, 2 g/l glucose, 0.1% BSA, Ph 7.2. To each well of a 96-well flat bottom, tissue culture plate is added 100 μl of cell suspension and 100 μl of buffer or test materials. Samples are run in quadruplicate. The plate is incubated for 60 minutes at 37° C. followed by the addition of 50 μl of buffer containing cytochrome C (5 mg/ml; type VI, horse heart, Sigma) and bovine liver catalase (1500 U/ml; Sigma) in the presence of zymosan A (ZYM); 750 μg/ml; Sigma). The plate is incubated an additional 120 minutes at 37° C. during which the absorbance at 550 nm is monitored using a microplate reader incorporating dedicated software for kinetic analysis (Molecular Devices; Menlo Park, Calif.).

Monocytes = test: Inhibition of monocyte chemotaxis; format: cell-based, human; set-up: key: NE: No effect; NT: Not tested; INHIB: Inhibition; STIM: Stimulation; TC: Tolerated Concentration; settings: chemoattractant FMLP
Description: Inhibition of Monocyte Chemotaxis:
Monocytes are prepared as previously described, and resuspended at 5×10^6 cells/ml in HBSS, 0.1% BSA (HBSS-BSA). Fluorophore labeling of the cells is carried out by adding calcein-AM to the above cells at a final concentration of 2 μM. Following a 30 minute incubation at 37° C. in humidified 5% CO2, the labeled monocytes are washed twice and incubated in a range of dilutions of the test materials for 60 minutes at 37° C. in humidified 5% CO2. The pre-treated, calcein-AM loaded cells are then added in triplicate to the wells of the top compartment of a NeuroProbe (Cabin, John, M.D.) 96-well chemotaxis chamber (2×10^5 cells/well) and permitted to migrate through a 10 μm thick bonded polycarbonate membrane (5 μm porosity; NeuroProbe Inc; Cabin, John, M.D.) towards the wells of the lower compartment containing the chemoattractant (FMLP) at 5×10^-9 M. After a 90 minute incubation at 37° C. in a humidified chamber, the wells of the upper chambers are aspirated, the monocyte-associated membrane removed, non-migrating cells wiped off and the filters permitted to air dry to 15 minutes. The number of cells migrating through the membranes are quantified by measuring the fluorescent intensity of the migrating cells in a fluorescent microplate reader (CytoFluor 2300, Millipore Corp., Bedford, Mass.)

LTB4 = test: Monocyte release of LTB4; format: cell-based; settings: Homo sapiens, effect INHIB (Inhibition), zymosan A
Description: as §1, §2

IL8 = test: Monocyte release of IL-8; format: cell-based, human; set-up: key: NE: No effect; NT: Not tested; INHIB: Inhibition; STIM: Stimulation; TC: Tolerated Concentration; settings: LPS 100 ng/ml
GM-CSF = test: Monocyte release of GM-CSF; format: cell-based; settings: Homo sapiens, effect INHIB (Inhibition), LPS 100 ng/ml
PBMC [3] = test: PBMC proliferation to mitogen PHA; format: cell-based; settings: Homo sapiens, effect INHIB (Inhibition), PHA 1.0 μg/ml
Description: (§3) Unless otherwise described the medium for human cell culture assays is defined as follows: RPMI-1640 is supplemented with 100 U/ml penicillin, 100 μg/ml streptomycin, 2 mM L-glutamine; 1 mM Na pyruvate; 1% MEM non-essential amino acids and 25 mM HEPES; (all from GIBCO, Gaithersburg, Md.). Complete medium is defined as medium supplemented with 5% pooled, heat-inactivated (56° C., 30 minutes) human AB serum (Pel-freeze, Brown Deer, Wis.).
Human Peripheral Blood Mononuclear Cell (PBMC) Isolation:
Venous blood is obtained from healthy volunteers and mixed with an equal volume of sterile isotonic saline/10 mM HEPES and placed into 50 ml conical polypropylene tubes in 30 ml aliquots. Each aliquot of diluted blood is underlaid with 20-25 ml of sterile Lymphocyte Separation Medium (LSM; Organon-Technika, Durham, N.C.). The tubes are centrifuged at 400 g for 40 minutes at room temperature. […] Cell concentrations for each donor are determined by counting in an haematology analyser (Serono-Baker). […]
PBMC are adjusted to 4×10^6 /ml in complete medium. […] The contents of the wells are harvested onto glass fibre filters using a multiple automated sample harvester (Tomtec), and the incorporated ^3 H-thymidine determined by liquid scintillation spectrophotometry and represented an cpm (counts per minute) incorporated per well.

IL6 = test: Monocyte release of IL-6; format: cell-based, human; set-up: key: NE: No effect; NT: Not tested; INHIB: Inhibition; STIM: Stimulation; TC: Tolerated Concentration; settings: LPS 100 ng/ml
TISSUE FACTOR = test: Monocyte procoagulant activity (Tissue Factor); format: cell-based; settings: Homo sapiens, effect INHIB (Inhibition)
Description: Purified monocytes prepared as described above are suspended at 4×10^6 cells/ml in complete medium. To each well of a 48-well flat bottomed tissue culture plate is added 0.125 ml of cell suspension. Test materials (diluted in complete medium at 2× the desired final concentration) are added in 250 μl volumes to each well. Control wells receive 250 μl of complete medium or 250 μl of IL-4 (diluted to×2 the desired final concentration of 50 ng/ml). All samples are tested at four concentrations in the presence or absence of 100 ng/ml LPS (125 μl of 4× desired final concentration added) and incubated at 37° C. in humidified 5% CO2, for 16 hours. At this time, culture supernatants are aspirated off, and the unattached cells and cell debris are removed by a 2 minute spin in a microcentrifuge at 10,000 g.l The release of cytokines and growth factors is determined in the cell-free supernatants using ELISA capture assays. In this way, testing for IL-1β, TNF-α, IL-1 receptor antagonist, IL-6, IL-8, GM-CSF and PDGF is conducted.
Monocyte Procoagulant Activity (Tissue Factor):
The adhered monocytes remaining on the 48-well tissue culture plates after removal of the supernatants above, are used to measure levels of Tissue Factor production. The cells are solubilized overnight at 4° C. in 10% Triton-×100 in PBS, diluted to 1% Triton-×100 with PBS then assayed by ELISA for Tissue Factor.

TNFα = test: Monocyte release of TNF-α; format: cell-based; settings: Homo sapiens, effect INHIB (Inhibition), LPS 100 ng/ml
IL1β = test: Monocyte release of IL-1β; format: cell-based, human; set-up: key: NE: No effect; NT: Not tested; INHIB: Inhibition; STIM: Stimulation; TC: Tolerated Concentration; settings: LPS 100 ng/ml
LDH = format: cell-based; settings: printed in the EC50 column; effect TC; read-out: TC Tolerated Concentration (LDH)
MTS = format: cell-based; settings: printed in the EC50 column; effect TC; read-out: TC Tolerated Concentration (MTS)
PBMC [4] = test: Two-way mixed lymphocyte reaction (MLR); format: cell-based; settings: Homo sapiens, effect INHIB (Inhibition)
Description: as §3
Two-Way Mixed Lymphocyte Reaction (MLR):
PBMC are prepared as described for the mitogen assays, but resuspended to 2×10^6 cells/ml in complete medium. Fifty μl of cell suspension from two different individuals is then added to each well of a 96-well flat bottom tissue culture plate. An additional 100 μl of complete medium, dexamethasone or test compounds are then added to each well, the plates are incubated for 6 days at 37° C., and then pulsed with ^3 H-thymidine and harvested as previously described.

Structure (SMILES): Cc1cn([C@H]2C[C@H](N=[N+]=[N-])[C@@H](CO)O2)c(=O)[nH]c1=O [zidovudine]
- mean HIV-1 viral load (levels with either agent alone) (HIV-1): 8- to 9 fold

Structure (SMILES): O=C1CCC(N2C(=O)c3ccccc3C2=O)C(=O)N1 (centres unmarked) [Thalidomide]
- activation of latent HIV-1 [1]: suppress the activation of latent HIV-1
- agonist-induced TNF-α protein and mRNA production (TNF-α): reduction
- inhibition of activation of virus in PBMC, patients [2]: 16 out of 17

Structure (SMILES): Nc1nc(Cl)c2ncn(CCCCB(O)O)c2n1 [2-Amino-6-chloro-9-(4-dihydroxyborylbutyl)purine]
- EFFECT (PAF) (PAF): NE
- EFFECT (IL1ra) (IL1ra): NE
- EFFECT (SUPEROXIDE) (SUPEROXIDE): NE
- EFFECT (CHEMOTAXIS) (Monocytes): NE
- EC50 (LTB4): 90.5 µM
- EFFECT (IL8) (IL8): NE
- EC50 (GM-CSF): 6.8 µM
- EC50 (PBMC [3]): 100 µM
- EFFECT (IL6) (IL6): NE
- EC50 (TISSUE FACTOR): 2.1 µM
- EC50 (TNFα): 0.57 µM
- EFFECT (IL1β) (IL1β): NE
- MNTC (LDH): 100 µM
- MNTC (MTS): 100 µM
- EC50 (PBMC [4]): 50 µM

Structure (SMILES): CC(=O)CCCCn1c(=O)c2c(ncn2C)n(C)c1=O [Pentoxifylline]
- mean HIV-1 viral load (levels with either agent alone) (HIV-1): 8- to 9 fold

— patent US5643893A, “N-substituted-(Dihydroxyboryl)alkyl purine, indole and pyrimidine derivatives, useful as inhibitors of inflammatory cytokines” (Macronex, Inc., priority 1994, dated 1997)
